Laboratory results as given in paper PMC6560211, “ApoAI-derived peptide increases glucose tolerance and prevents formation of atherosclerosis in mice” (Diabetologia, 2019).

Tests used:
[1] = rHDL formation, particle size by DLS; conditions: 1:100 protein:lipid molar ratio, extruded 100 nm MLVs, 4 days (96 h), 24°C
Procedure: 1,2-dimyristoyl-sn-glycero-3-phosphocholine (DMPC; Avanti Polar Lipids, Alabaster, AL, USA) was formed into 100 nm multilamellar vesicles (MLV) via extrusion using the LiposoFast system (Avestin, Ottawa, ON, Canada) as previously described. MLV were incubated with RG54 or ApoA-I at the indicated ratios for 4 days at 24°C to form rHDL. The resulting particle sizes were measured by dynamic light scattering (DLS) using a Zetasizer APS (Malvern Instruments, Uppsala, Sweden).
The reduced initial rate may be due to a more complex binding pattern of the larger number of RG54 peptides needed per formed particle: four to five RG54 molecules (54 amino acids each) are needed to make up the size of full-length ApoA-I (243 amino acids). A qualitative assessment of particle formation was therefore next used to evaluate and compare the sizes of formed rHDL. The hydrodynamic diameters of lipid–protein complexes formed after extended incubation (96 h) of RG54 or ApoA-I with extruded 100 nm MLVs were estimated using DLS.
ESM Figure 4. Lipid clearance and peptide-lipid complex formation activity of RG54 compared with full-length ApoA-I. […]

DIO C57BL/6NTac mice = experiment: GTT in diet-induced obesity (DIO) mice; format: in vivo, mouse; conditions: for fasting glucose levels / fasting insulin levels / insulin sensitivity as measured by QUICKI: DIO mice, 3 h treatment, i.p.
Procedure: (§1) Male C57BL/6NTac mice (Taconic, Ejby, Denmark) at 8–9 weeks of age were acclimatised for 1 week on a normal chow diet, then changed to a high-fat diet for 2 weeks (diet-induced obesity; DIO), followed by GTT as indicated. Male Lepr^db (db/db) mice on a BKS background (Taconic) at 5 weeks of age were maintained on a normal chow diet and GTTs were performed at 5.5 and 14 weeks of age as indicated. Blood glucose levels were measured in fresh blood (C57: OneTouch Ultra2, Lifescan, Milpitas, CA, USA; db/db: GlucoSmart Swing, MSP bodmann, Bobingen, Germany) and insulin levels were assayed in serum using ELISA (Mercodia) at the times indicated in ESM Fig. 2. See ESM Methods for more details.
The effect of RG54 peptide on glucose disposal was investigated in an established insulin-resistant mouse model. DIO mice were fasted for 9 h followed by a single i.p. dose of RG54 (12 mg/kg), ApoA-I (14 mg/kg), liraglutide (0.1 mg/kg), or an equal volume of NaCl solution. After a further 3 h fasting period, GTTs were performed (Fig. 4a,b).
(§2) Fig. 4 Acute treatment with RG54 improves glucose tolerance during GTTs in three models of type 2 diabetes. Male C57Bl/6 mice fed a high-fat diet for 2 weeks (a–d) or db/db mice at 5.5 (e–h) or 14 (i–l) weeks old were fasted overnight, then treated with a single i.p. injection of NaCl (negative control, 200 μl; C57, n=12; db/db 5.5 weeks, n=6; db/db 14 weeks, n=6), liraglutide (0.1 mg/kg; C57, n=11; db/db 5.5 weeks, n=6; db/db 14 weeks, n=6), ApoA-I (14 mg/kg; C57, n=12; db/db 5.5 weeks, n=6; db/db 14 weeks, n=6) or RG54 (12 mg/kg; C57, n=12; db/db 5.5 weeks, n=6; db/db 14 weeks, n=5). After a further 3 h, mice received an i.p. glucose load (40 mg/mouse for C57; 50 mg/mouse for db/db) followed by blood and plasma collection at the indicated times, and blood glucose (a,e,i) and plasma insulin (b,f,j) concentrations were determined. Total AUC was calculated (mmol/l × min for glucose, pmol/l × min for insulin) and then normalised to the average value of the relevant NaCl control group to give relative AUC (% control) for glucose (c,g,k) and insulin (d,h,l). Values are means ± SEM. *p≤0.05, **p≤0.01, ***p≤0.001 vs NaCl control […]
We directly compared the i.p. and s.c. injection routes in DIO mice. DIO mice were fasted for 9 h, followed by a single i.p. or s.c. injection of RG54 (12 mg/kg), ApoA-I (14 mg/kg), or an equal volume of NaCl solution. After a further 3 h fasting and incubation period, GTTs were performed. […] Finally, we assessed the dose response of s.c. RG54 to find treatment concentrations with full or partial effects on glycaemic control as compared with our positive control (Fig. 6).
Male C57Bl/6 mice fed a high-fat diet for 2 weeks were fasted overnight, then treated with a single i.p. or s.c. injection of NaCl (negative control, 200 μl, n=6), ApoA-I (14 mg/kg, n=6) or RG54 (12 mg/kg, n=6). After a further 3 h, all mice received an i.p. glucose load (40 mg/mouse) followed by blood and plasma collection at the indicated times, and blood glucose (a,b) and plasma insulin (d,e) concentrations were determined for all injection routes. Total AUC was calculated (mmol/l × min for glucose, pmol/l × min for insulin) and then normalised to the average value of the relevant NaCl control group to give relative AUC (% control) for glucose (c) and insulin (f). Values are means ± SEM. ***p≤0.001 vs NaCl control […]
Male C57BL/6NTac mice were purchased from Taconic (Ejby, Denmark) at 8-9 weeks of age, acclimatised for one week on normal chow diet, then changed to a High-Fat Diet (HFD; Research Diets D12492, 60% fat content) for 2 weeks, followed by glucose tolerance testing (GTT) with timings as indicated (ESM Figure 2). Male Leprdb mice (db/db) on BKS background purchased from Taconic (BKS.Cg-m+/+Leprdb/BomTac, Ejby, Denmark) at 5 weeks of age were maintained on normal chow diet and GTTs were performed at 5.5 and 14 weeks of age with timings as indicated (ESM Figure 2). For the GTTs, mice fasted overnight […]

Lepr db (db/db) mice = experiment: GTT in db/db mice; format: in vivo, mouse; conditions: db/db 5.5 weeks
Procedure: as §1, §2
We next used type 2 diabetes models with a more advanced phenotype: db/db mice at 5.5 and 14 weeks of age.
At 14 weeks of age, mice were markedly obese with a mean ± SEM body weight of 55.3 ± 0.6 g. […] One mouse was excluded from RG54 treatment group because of very high residual insulin secretion prior to the experiment.
Male C57BL/6NTac mice were purchased from Taconic (Ejby, Denmark) at 8-9 weeks of age, acclimatised for one week on normal chow diet, then changed to a High-Fat Diet (HFD; Research Diets D12492, 60% fat content) for 2 weeks, followed by glucose tolerance testing (GTT) with timings as indicated (ESM Figure 2). Male Leprdb mice (db/db) on BKS background purchased from Taconic (BKS.Cg-m+/+Leprdb/BomTac, Ejby, Denmark) at 5 weeks of age were maintained on normal chow diet and GTTs were performed at 5.5 and 14 weeks of age with timings as indicated (ESM Figure 2). For the GTTs, mice fasted overnight (9 h) were injected with the appropriate treatment, and after an additional 3 h given ip glucose (C57: 40 mg/mouse; db/db: 50 mg/mouse) followed by collection of serum samples at the indicated times. Blood glucose levels were measured in fresh blood (C57: OnetouchUltra2, Lifescan; db/db: GlucoSmart Swing, MSP bodmann) and insulin levels were assayed in serum using ELISA (Mercodia). db/db mice were independently randomized to treatments groups for GTT at each time point as no carry over was expected between experiments due to the acute nature of the treatment effects. Primary outcomes were blood glucose and insulin measurements during the GTT. C57BL/6NTac mice were euthanized immediately after each experiment whereas db/db were euthanized immediately after the GTT at 14 weeks of age. […]
and reproducible clinical symptoms of diabetes than females in these models [5; 6] thus ensuring the reproducibility of clinical symptoms between animals within the study. […]

ApoA-I: Recombinant human ApoA-I, full-length (243 amino acids), used as control
lipid-protein complexes formed (DLS frequency plots) [1]: single peaks corresponding to rHDL particles | fasting glucose levels (DIO C57BL/6NTac mice): significantly lowered | fasting insulin levels (DIO C57BL/6NTac mice): no concomitant increase | insulin sensitivity as measured by QUICKI (DIO C57BL/6NTac mice): no change | insulin secretion in GTT (DIO C57BL/6NTac mice; route comparison, i.p. injection, RG54 12 mg/kg, ApoA-I 14 mg/kg, n=6): increased insulin secretion | fasting glucose levels (Lepr db (db/db) mice; 3 h treatment, i.p.): significantly lowered | fasting insulin secretion (Lepr db (db/db) mice; 3 h treatment, i.p.): no significant changes | insulin sensitivity as measured by QUICKI (Lepr db (db/db) mice; 3 h treatment, i.p.): no concomitant change

CCCCCCCCCCCCCCCC(=O)N[C@@H](CCC(=O)NCCCC[C@H](NC(=O)[C@H](C)NC(=O)[C@H](C)NC(=O)[C@H](CCC(N)=O)NC(=O)CNC(=O)[C@H](CCC(=O)O)NC(=O)[C@H](CC(C)C)NC(=O)[C@H](Cc1ccc(O)cc1)NC(=O)[C@H](CO)NC(=O)[C@H](CO)NC(=O)[C@@H](NC(=O)[C@H](CC(=O)O)NC(=O)[C@H](CO)NC(=O)[C@@H](NC(=O)[C@H](Cc1ccccc1)NC(=O)[C@@H](NC(=O)CNC(=O)[C@H](CCC(=O)O)NC(=O)[C@H](C)NC(=O)[C@@H](N)Cc1c[nH]cn1)[C@@H](C)O)[C@@H](C)O)C(C)C)C(=O)N[C@@H](CCC(=O)O)C(=O)N[C@@H](Cc1ccccc1)C(=O)N[C@H](C(=O)N[C@@H](C)C(=O)N[C@@H](Cc1c[nH]c2ccccc12)C(=O)N[C@@H](CC(C)C)C(=O)N[C@H](C(=O)N[C@@H](CCCNC(=N)N)C(=O)NCC(=O)N[C@@H](CCCNC(=N)N)C(=O)NCC(=O)O)C(C)C)[C@@H](C)CC)C(=O)O [liraglutide, reference compound]
fasting glucose levels (DIO C57BL/6NTac mice): significantly lowered | fasting insulin levels (DIO C57BL/6NTac mice): no concomitant increase | insulin sensitivity as measured by QUICKI (DIO C57BL/6NTac mice): no change | insulin secretion at the 15-min time point (Lepr db (db/db) mice; liraglutide 0.1 mg/kg i.p.): modest, transient increase | overall insulin AUC (Lepr db (db/db) mice; liraglutide 0.1 mg/kg i.p.): not increased
